Test results as given in patent US4857650A, “Novel renin inhibitory amino acid derivatives” (Kissei Pharmaceutical Co., Ltd., priority 1985, dated 1989).

Key:
[1] = target: T1, human renin (Homo sapiens, UniProt P00797); settings: 106th Annual Meeting of the Pharmaceutical Society of Japan (April, 1986)/Meeting of Japanese Circulation Journal (March, 1986); cited from earlier work
T1 sequence (P00797 67-406): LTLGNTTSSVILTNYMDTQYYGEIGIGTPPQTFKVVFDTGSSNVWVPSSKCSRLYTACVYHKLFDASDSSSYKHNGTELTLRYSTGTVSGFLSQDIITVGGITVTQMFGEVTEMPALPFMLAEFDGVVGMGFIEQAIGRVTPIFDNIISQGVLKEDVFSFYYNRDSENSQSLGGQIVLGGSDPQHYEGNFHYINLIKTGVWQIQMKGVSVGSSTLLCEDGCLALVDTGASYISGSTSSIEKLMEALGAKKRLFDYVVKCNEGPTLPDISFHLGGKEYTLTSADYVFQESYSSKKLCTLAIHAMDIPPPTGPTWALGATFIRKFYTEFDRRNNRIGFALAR

[2] = target: T2, renin in human high renin plasma (Homo sapiens, UniProt P00797); assay: Renin inhibitory effect in a human high renin plasma; assay type: biochemical; settings: pH 7.4, 30 minutes at 37° C., read-out: IC50 (molar concentration)
T2 construct: 500 μl of human high renin plasma; from tissue; host or cells: human high renin plasma
T2 sequence (P00797 67-406): T1 sequence (P00797 67-406)
Protocol: Renin inhibitory effect in a human high renin plasma A mixture of 350 μl of a 0.5M phosphate buffer containing 14 mM EDTA 2Na and a 0.3% neomycin sulfate, which was adjusted to the pH of 7.4, 50 μl of a 20 mM an aqueous solution of […] as an angiotensin converting enzyme inhibitor and 100 μl of dimethyl sulfoxide solution containing an amino acid compound of the present invention was added to 500 μl of human high renin plasma. […] was incubated for 30 minutes at 37° C. in a water bath. A 200 μl sample was withdrawn from the incubated mixture, chilled immediately in an ice bath, and the amount of angiotensin I produced was determined by radioimmunoassay, and remaining of the mixture (200 μ[…] 4° C. in an ice bath. The amount of angiotensin I produced in the incubated mixture at 4° C. in an ice bath was determined by radioimmunoassay. As a control, the same procedure as above was carried out by using 100 μl of dimethyl sulfoxide alone in place of the 100 μl of dimethyl sulfoxide solution containing an amino acid compound of the present invention. The inhibitory effect was calculated by the following equation. [formula] The molar concentration which produced 50% inhibition (IC50) was calculated from the inhibition value obtained, and the results are shown below.

[3] = target: T1, human renin; assay: Human renin-sheep renin substrate reaction system in vitro; assay type: biochemical; settings: pH 7.4, 15 minutes at 37° C., read-out: IC50 (molar concentration)
Protocol: Human resin-sheep resin substrate reaction system in vitro To a mixture containing 200 μl of a 125 mM pyrophosphate buffer (pH 7.4), 25 μl of a 20 mM aqueous solution of […] as an angiotensin converting enzyme inhibitor, 50 μl of semipurified sheep renin substrate ([…]), 50 μl of dimethyl sulfoxide solution of an amino acid derivative of the present invention (or 50 μl of dimethyl sulfoxide as a control) and 150 μl of deionized water was added 25 μl of purified human renin (20-30 ng angiotensin I/ml/hr). The mixture was incubated for 15 minutes on a water bath at 37° C., and the reaction mixture was allowed to stand for 5 minutes on a water bath at 100° C. to stop the reaction. After cooling, 200 μl of the solution were taken up and the amount of angiotensin I produced by the addition of renin was determined by radioimmunoassay. The inhibitory effect was calculated by the following equation. [formula] The molar concentration which produced 50% inhibition (IC50) was calculated from the inhibition value obtained, and the results are shown below.

[4] = test system: common marmoset; assay: Hypotensive effect in marmoset (furosemide-induced high renin state); assay type: in vivo; settings: oral, 100 mg/kg, control 94.0 in (a), 90.9 in (c)
Protocol: The experiment was carried out by using common marmoset as described in K. G. Hofbauer et al., Clinical and Experimental hypertension, Vol. A5, Nos. 7 & 8 (1983), pages 1237-1247.
Furosemide was orally administered three times to common marmoset at 15 mg per kilogram per day every other day to create a high renin state. Blood pressure of conscious marmoset was measured 2 days after the last administration of furosemide.
Measurement of blood pressure
Two conscious male marmosets weighing 365-380 g were fixed. Mean blood pressure at tail artery was recorded on pretismograph instument. The amino acid compound of the present invention, administered orally using a catheter.

| Structure (SMILES) | human renin inhibitory activity [1] | IC50 [2] [µM] | IC50 [3] [µM] | Blood pressure ([4]; n = 2, 1 hour after administration) [mmHg] | Blood pressure ([4]; n = 2, 2 hours after administration) [mmHg] | Blood pressure ([4]; n = 2, 3 hours after administration) [mmHg] | Blood pressure ([4]; n = 2, 5 hours after administration) [mmHg] | Blood pressure ([4]; n = 2, 7 hours after administration) [mmHg] |
| --- | --- | --- | --- | --- | --- | --- | --- | --- |
| CC(C)CC(NC(=O)[C@H](Cc1c[nH]cn1)NC(=O)C(CC(=O)N1CCOCC1)Cc1cccc2ccccc12)C(O)C(=O)OC(C)C (some centres unmarked) | human renin inhibitory activity | – | – | – | – | – | – | – |
| COC(=O)[C@@H]1CCCN1C(=O)CC(Cc1cccc2ccccc12)C(=O)N[C@@H](Cc1c[nH]cn1)C(=O)N[C@@H](CC(C)C)C(O)C(=O)OC(C)C (stereo partly drawn) [Isopropyl(2RS,3S)-3-{N-[2-(1-naphthylmethyl)-3-(2S-methoxycarbonylpyrrolidinocarbonyl)propionyl]-L-histidyl}-amino-2-hydroxy-5-methylhexanoate] | – | 0.05 | 0.052 | 77.5 | 74.0 | 70.0 | 92.2 | 101.5 |
